These compounds were tested against wild-type αHL protein pore (Staphylococcus aureus, UniProt P09616).
Format: binding

wild-type αHL protein pore, sequence (P09616 27-319 limits assumed): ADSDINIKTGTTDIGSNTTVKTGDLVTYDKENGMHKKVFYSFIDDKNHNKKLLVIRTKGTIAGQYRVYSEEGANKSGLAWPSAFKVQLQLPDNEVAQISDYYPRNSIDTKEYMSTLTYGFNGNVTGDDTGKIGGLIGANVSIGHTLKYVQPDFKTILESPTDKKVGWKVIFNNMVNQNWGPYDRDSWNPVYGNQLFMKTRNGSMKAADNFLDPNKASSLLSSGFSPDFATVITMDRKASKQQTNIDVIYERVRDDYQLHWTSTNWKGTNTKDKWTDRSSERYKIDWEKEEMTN

Row | Compound | mean amplitude of analyte-boromycin complex events [pA] | τoff (mean dwell time) of analyte-boromycin complex [ms] | increase of event mean dwell time in BMIM-Cl versus NaCl [fold]
1 | CCN(CC)CC.Cl [TEA, triethylammonium chloride] | 33.7±0.4 | 60.6 ± 1.9 | 
2 | boromycin |  |  | 2.6
3 | CCNCC.Cl [DEA, diethylammonium chloride] | 33.6±0.8 | 40.5 ± 0.5 | 
4 | KCl [K^+] | 33.6±0.3 | 52.1 ± 0.3 | 
5 | NH4Cl [NH4^+] | 33.7±0.2 | 75.0 ± 1.6 | 
6 | Cl.ClCCN1CCOCC1 [CM, 4-(2-chloroethyl)morpholine hydrochloride] | 33.5±1.2 | 34.7 ± 0.6 | 
